Where two headings read alike, the source gives them in different places.
How the values were obtained:
[1] = system: Venturia inaequalis; assay: Example 2: greenhouse control of apple scab, phthalimides with cyprodinil and/or fluxapyroxad; assay type: in vivo; conditions: Table 6; captan or folpet 1200, cyprodinil 300, fluxapyroxad 90 gAI/ha; one spray 1 day before inoculation
[2] = system: Sphaerotheca fuliginea; assay: Example 10: greenhouse control of Sphaerotheca fuliginea on melon plants; assay type: in vivo
[3] = system: Botrytis cinerea; assay: Example 11: greenhouse control of Botrytis cinerea in strawberry; assay type: in vivo
[4] = system: Erysiphe necator; assay: Example 9: greenhouse control of Erysiphe necator in grape plants; assay type: in vivo
Method: • An experiment was conducted in controlled conditions under a greenhouse to evaluate the fungicidal activity of the mixture comprising (1) phthalimide fungicide (folpet, captan) and (2) demethylation inhibitor fungicide (difenoconazole) or a quinone outside inhibitors (azoxystrobin, pyraclostrobin), toward Erysiphe necator in grape plants, variety Barbera. In addition, the activity of phthalimide with two fungicides (A); demethylation inhibitor fungicide (difenoconazole) or a quinone outside inhibitors (azoxystrobin, pyraclostrobin and dehydrogenase inhibitor fungicide (fluxapyroxad) was also tested. • The experiment was conducted by applying compositions of fluxapyroxad, difenoconazole (Score® 10 WG), azoxystrobin (Ortiva®), pyraclostrobin (Cabrio® EC) and folpet (Folpan 80 WDG®) alone or together. The compositions were diluted with water. Water amount used was equivalent to 800 L/ha. Application was performed in an automatic spraying cabin equipped with 2 flatfan AI11003VS nozzles. • Treatments: • Folpet 1000 gr (A.I.)/ha • Fluxapyroxad 45 gr (A.I.)/ha • Difenoconazole 37.5 gr (A.I.)/ha • Difenoconazole 37.5 gr (A.I.)/ha+folpet 1000 gr (A.I.)/ha • Azoxystrobin 90 gr (A.I.)/ha • Azoxystrobin 90 gr (A.I.)/ha+folpet 1000 gr (A.I.)/ha • Pyraclostrobin 75 gr (A.I.)/ha • Pyraclostrobin 75 gr (A.I.)/ha+folpet 1000 gr (A.I.)/ha • Fluxapyroxad 45 gr (A.I.)/ha+Difenoconazole 37.5 gr (A.I.)/ha • Fluxapyroxad 45 gr (A.I.)/ha+Difenoconazole 37.5 gr (A.I.)/ha+folpet 1000 gr (A.I.)/ha • Azoxystrobin 90 gr (A.I.)/ha+Fluxapyroxad 45 gr (A.I.)/ha • Azoxystrobin 90 gr (A.I.)/ha+Fluxapyroxad 45 gr (A.I.)/ha+folpet 1000 gr (A.I.)/ha • Azoxystrobin 90 gr (A.I.)/ha+Difenoconazole 37.5 gr (A.I.)/ha • Azoxystrobin 90 gr (A.I.)/ha+Difenoconazole 37.5 gr (A.I.)/ha+folpet 1000 gr (A.I.)/ha • Pyraclostrobin 75 gr (A.I.)/ha+Fluxapyroxad 45 gr (A.I.)/ha • Pyraclostrobin 75 gr (A.I.)/ha+Fluxapyroxad 45 gr (A.I.)/ha+folpet 1000 gr (A.I.)/ha • Pyraclostrobin 75 gr (A.I.)/ha+Difenoconazole 37.5 gr (A.I.)/ha • Pyraclostrobin 75 gr (A.I.)/ha+Difenoconazole 37.5 gr (A.I.)/ha+folpet 1000 gr (A.I.)/ha • To test for fungicidal control of Erysiphe necator, the grape plants were sprayed with each of the above treatments. Each of the above treatments was applied from 4 to 10 times according to the disease development, applications occurring 7-14 days after the previous treatment. The treatments were composed of 4 replicates. • Evaluations were performed for the whole duration of the experiment. At each time the incidence and the severity of Erysiphe necator on plants parts was determined.

[5] = system: Alternaria solani; assay: Example 5: greenhouse control of Alternaria solani in tomato, phthalimides with azoxystrobin and/or fluxapyroxad; assay type: in vivo
[6] = system: Plasmopara viticola; assay: Example 8: greenhouse control of Plasmopara viticola in young grape plants, folpet with potassium phosphonate
[7] = system: Venturia inaequalis; assay: Example 1b: greenhouse control of apple scab, reduced rates of phthalimides and difenoconazole; assay type: in vivo; conditions: for % control observed on leaves 26 DAYS after the application / % control observed on leaves 19 DAYS after the application: captan or folpet 900, difenoconazole 35, tebuconazole 150, fluopyram 150 gAI/ha; for Var % (19/26 DAYS): change of % control from 19 to 26 days
[8] = system: Alternaria solani; assay: Example 4: greenhouse control of Alternaria solani in tomato seedlings, phthalimides with DMI and/or fluxapyroxad; assay type: in vivo; conditions: Table 9
[9] = system: Venturia inaequalis; assay: Example A: greenhouse control of apple scab, phthalimides with DMI and/or fluopyram; assay type: in vivo; conditions: for % control observed on leaves 26 DAYS after the application / % control observed on leaves 19 DAYS after the application: captan or folpet 1200, difenoconazole 75, tebuconazole 150, fluopyram 150 gAI/ha; for Var % (19/26 DAYS): change of % control from 19 to 26 days
[10] = system: Zymoseptoria tritici; assay: Example 28: in planta bioassay of penetration and translocation of QoI with folpet, wheat leaf segments; assay type: in vivo; conditions: example written in the present tense
[11] = system: Zymoseptoria tritici Tri-R6 strain; assay type: in vivo; conditions: for residual efficacy of the contact active ingredients after the washing step: 21 and 28 days after inoculation; for efficacy in the untreated area: 28 days, contact fungicide as partner of FLUXAPYROXAD, comparison with FLUXAPYROXAD alone
[12] = system: Venturia inaequalis; assay: Example 13: greenhouse control of apple scab, fluxapyroxad and captan; assay type: in vivo
[13] = system: Alternaria solani; assay: Example 6b: greenhouse control of Alternaria solani in potato plants; assay type: in vivo
[14] = system: Phytophthora infestans; assay type: in vivo; conditions: tomato
[15] = system: Plasmopara viticola; assay: Example 7: greenhouse control of Plasmopara viticola in grape plants, folpet with partners; assay type: in vivo; conditions: rate 1000 gr (A.I.)/ha
[16] = Table 10, captan or folpet 1200, azoxystrobin 120, fluxapyroxad 75 gAI/ha, one spray 1 day before inoculation
[17] = Table 4, one spray 1 day before inoculation
[18] = captan or folpet 1200, difenoconazole 75, tebuconazole 150, fluxapyroxad 75 gAI/ha, one spray 1 day before inoculation
[19] = Table 2, one spray 1 day before inoculation, severity based
[20] = Table 10, captan or folpet 900 gAI/ha

Cc1cc(C2CC2)nc(Nc2ccccc2)n1 [CYPRODINIL, cyprodinil]
% control observed on leaves 26 DAYS after the application [1]: 62.7%

COC(=O)N(OC)c1ccccc1COc1ccn(-c2ccc(Cl)cc2)n1 [PYRACLOSTROBIN]
% control observed on leaves 21 DAYS after the application ([2]; rate 100 gr (A.I.)/ha): 60.1%
% control observed on leaves 21 DAYS after the application ([3]; rate 75 gr (A.I.)/ha): 66.7%
% control observed on leaves 21 DAYS after the application ([4]; rate 75 gr (A.I.)/ha): 70.7%

CO/C=C(/C(=O)OC)c1ccccc1Oc1cc(Oc2ccccc2C#N)ncn1 [AZOXYSTROBIN, azoxystrobin]
% control observed on leaves 20 DAYS after the application [5, 16]: 51.4%
% control observed on leaves 14 DAYS after the application ([5]; rate 120 gAI/ha, tomato): 71%
% control observed on leaves 20 DAYS after the application ([5]; rate 120 gAI/ha, tomato): 51.4%
Var % (14/20 DAYS) ([5]; rate 120 gAI/ha, tomato): −27.6%
% control observed on leaves 21 DAYS after the application ([2]; rate 250 gr (A.I.)/ha): 51.0%
% control observed on leaves 21 DAYS after the application ([4]; rate 90 gr (A.I.)/ha): 65.9%

potassium phosphonate
% control observed on leaves 28 DAYS after the application ([6]; rate 1575 gAI/ha): 31.7%
% control observed on leaves 28 DAYS after the application ([6]; rate 1800 gAI/ha): 40.9%

CC1COC(Cn2cncn2)(c2ccc(Oc3ccc(Cl)cc3)cc2Cl)O1 (stereo not shown) [DIFENOCONAZOLE, difenoconazole]
% control observed on leaves 21 DAYS after the application ([2]; rate 50 gr (A.I.)/ha): 49.4%
% control observed on leaves 26 DAYS after the application [7, 17]: 73.1%
% control observed on leaves 19 DAYS after the application ([7]; Table 5): 79.5%
% control observed on leaves 26 DAYS after the application ([7]; Table 5): 73.1%
Var % (19/26 DAYS) ([7]; Table 5): −8.1%
% control observed on leaves 20 DAYS after the application [8, 18]: 60.6%
% control observed on leaves 26 DAYS after the application [9, 19]: 71.8%
% control observed on leaves 19 DAYS after the application ([9]; Table 3): 77.9%
% control observed on leaves 26 DAYS after the application ([9]; Table 3): 71.8%
Var % (19/26 DAYS) ([9]; Table 3): −7.8%
% control observed on leaves 21 DAYS after the application ([4]; rate 37.5 gr (A.I.)/ha): 68.9%

N#Cc1c(Cl)c(Cl)c(Cl)c(C#N)c1Cl [CHLOROTHALONIL, chlorothalonil]
difference from the untreated control after the washing step, treated and untreated areas [10]: no significant difference from the untreated control
residual efficacy of the contact active ingredients after the washing step [11]: very low
efficacy in the untreated area [11]: significantly less than when FLUXAPYROXAD is used alone or with FOLPET

S1SSSSSSS1 [SULPHUR]
difference from the untreated control after the washing step, treated and untreated areas [10]: no significant difference from the untreated control
residual efficacy of the contact active ingredients after the washing step [11]: very low
efficacy in the untreated area [11]: significantly less than when FLUXAPYROXAD is used alone or with FOLPET

O=C1C2CC=CCC2C(=O)N1SC(Cl)(Cl)Cl (stereo not shown) [CAPTAN, captan]
% control observed on leaves 20 DAYS after the application [5, 20]: 54.5%
% control observed on leaves 20 DAYS after the application [5, 16]: 65.9%
% control observed on leaves 14 DAYS after the application ([5]; rate 900 gAI/ha, tomato): 64.9%
% control observed on leaves 20 DAYS after the application ([5]; rate 900 gAI/ha, tomato): 54.5%
Var % (14/20 DAYS) ([5]; rate 900 gAI/ha, tomato): −16.0%
% control observed on leaves 14 DAYS after the application ([5]; rate 1200 gAI/ha, tomato): 76%
% control observed on leaves 20 DAYS after the application ([5]; rate 1200 gAI/ha, tomato): 65.9%
Var % (14/20 DAYS) ([5]; rate 1200 gAI/ha, tomato): −13.3%
% control observed on leaves 26 DAYS after the application ([12]; rate 600 gAI/ha): 50.4%
% control observed on leaves 26 DAYS after the application ([12]; rate 900 gAI/ha): 68.1%
% control observed on leaves 26 DAYS after the application ([12]; rate 1200 gAI/ha): 78.5%
% control observed on leaves 26 DAYS after the application ([12]; rate 1500 gAI/ha): 89.1%
% control observed on leaves 21 DAYS after the application ([13]; rate 900 gr (A.I.)/ha): 54.1%
% control observed on leaves 21 DAYS after the application ([13]; rate 1200 gr (A.I.)/ha): 64.8%
% control observed on leaves 26 DAYS after the application [7, 17]: 77%
% control observed on leaves 19 DAYS after the application ([7]; Table 5): 83.9%
% control observed on leaves 26 DAYS after the application ([7]; Table 5): 77%
Var % (19/26 DAYS) ([7]; Table 5): −8.2%
% control observed on leaves 14 DAYS after the application ([14]; rate 900 gr (A.I.)/ha): 57.0%
% control observed on leaves 14 DAYS after the application ([14]; rate 1200 gr (A.I.)/ha): 72.4%
% control observed on leaves 20 DAYS after the application ([8]; captan or folpet 900 gAI/ha): 51.3%
% control observed on leaves 20 DAYS after the application [8, 18]: 64.3%
% control observed on leaves 26 DAYS after the application [1]: 68.3%
% control observed on leaves 26 DAYS after the application [9, 19]: 75.9%
% control observed on leaves 19 DAYS after the application ([9]; Table 3): 82.6%
% control observed on leaves 26 DAYS after the application ([9]; Table 3): 75.9%
Var % (19/26 DAYS) ([9]; Table 3): −8.1%

O=C1c2ccccc2C(=O)N1SC(Cl)(Cl)Cl [FOLPET, folpet]
% control observed on leaves 20 DAYS after the application [5, 20]: 56.7%
% control observed on leaves 20 DAYS after the application [5, 16]: 65.3%
% control observed on leaves 14 DAYS after the application ([5]; rate 900 gAI/ha, tomato): 67.8%
% control observed on leaves 20 DAYS after the application ([5]; rate 900 gAI/ha, tomato): 56.7%
Var % (14/20 DAYS) ([5]; rate 900 gAI/ha, tomato): −16.4%
% control observed on leaves 14 DAYS after the application ([5]; rate 1200 gAI/ha, tomato): 79.7%
% control observed on leaves 20 DAYS after the application ([5]; rate 1200 gAI/ha, tomato): 65.3%
Var % (14/20 DAYS) ([5]; rate 1200 gAI/ha, tomato): 18.1%
% control observed on leaves 21 DAYS after the application ([13]; rate 900 gr (A.I.)/ha): 53.2%
% control observed on leaves 21 DAYS after the application ([13]; rate 1200 gr (A.I.)/ha): 63.6%
% control observed on leaves 21 DAYS after the application ([2]; rate 900 gr (A.I.)/ha): 45.3%
% control observed on leaves 21 DAYS after the application ([2]; rate 1200 gr (A.I.)/ha): 54.0%
difference from the untreated control after the washing step, treated and untreated areas [10]: no significant difference from the untreated control
% control observed on leaves 26 DAYS after the application [7, 17]: 73.4%
% control observed on leaves 19 DAYS after the application ([7]; Table 5): 82.1%
% control observed on leaves 26 DAYS after the application ([7]; Table 5): 73.4%
% control observed on leaves 14 DAYS after the application ([14]; rate 900 gr (A.I.)/ha): 58.3%
% control observed on leaves 14 DAYS after the application ([14]; rate 1200 gr (A.I.)/ha): 70.3%
% control observed on leaves 20 DAYS after the application ([8]; captan or folpet 900 gAI/ha): 50.5%
% control observed on leaves 20 DAYS after the application [8, 18]: 63.4%
% control observed on leaves 21 DAYS after the application ([3]; rate 900 gr (A.I.)/ha): 33.3%
% control observed on leaves 21 DAYS after the application ([3]; rate 1200 gr (A.I.)/ha): 40.8%
% control observed on leaves 26 DAYS after the application [1]: 64.9%
% control observed on leaves 26 DAYS after the application [9, 19]: 72.3%
% control observed on leaves 19 DAYS after the application ([9]; Table 3): 80.6%
% control observed on leaves 26 DAYS after the application ([9]; Table 3): 72.3%
Var % (19/26 DAYS) ([9]; Table 3): −10.3%
% control observed on leaves 28 DAYS after the application ([6]; rate 1050 gAI/ha): 87.7%
% control observed on leaves 28 DAYS after the application ([6]; rate 1200 gAI/ha): 96.9%
% control observed on leaves 21 DAYS after the application ([4]; rate 1000 gr (A.I.)/ha): 35.2%
residual efficacy of the contact active ingredients after the washing step [11]: very low
% control observed on leaves 21 DAYS after the application [15]: 60.3%
